Among the data in PubChem BioAssay (NCI) are GI50 and TGI values, retold here.

Among the test systems are EKVX NSCLC; HCC-2998 colon; HS 578T breast; K-562 leukemia; M14 melanoma; MALME-3M melanoma; NCI-H460 lung; PC-3 prostate; SW-620 colon; UO-31 renal.
Holding throughout (assay): NCI anticancer screen, dose series, 48 h

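Where inhibition never reached the appropriate level, the endpoint shown equals the highest concentration tested. Otherwise, values were interpolated linearly from a five-concentration, 48-hour dose response in 96-well plates. At the GI50, growth is halved. TGI: concentration producing complete growth inhibition.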 Bounds are passed on as bounds.

Consider `Cc1cccc2c3c(sc12)C(c1ccc(F)cc1)C(C#N)=C(N)O3` (stereo not given), for which the GI50 in the experiment on EKVX NSCLC is 0.141 µM; with HCC-2998 colon it was 0.311 µM; with HS 578T breast, 0.0482 µM; in the experiment with K-562 leukemia it was 0.0357 µM; with M14 melanoma it was 0.0976 µM; with MALME-3M melanoma, 0.08 µM. Further, the GI50 in the experiment on NCI-H460 lung is 0.0537 µM; in the experiment on PC-3 prostate it was 0.045 µM; with SW-620 colon, 0.044 µM; with UO-31 renal, 0.286 µM. The TGI was 17.6 µM with EKVX NSCLC; 9.75 µM in the experiment with HCC-2998 colon; 1.95 µM with HS 578T breast; > 100 µM in the experiment with K-562 leukemia; 11.7 µM with M14 melanoma; 19 µM with MALME-3M melanoma. For the same molecule, the TGI was found to be 2.52 µM in the experiment on NCI-H460 lung, 11.3 µM with PC-3 prostate, 14.2 µM with SW-620 colon and 15.5 µM in the experiment with UO-31 renal.
Regarding `COCCOCCOCc1n(Cc2ccc3ccccc3n2)c2ccccc2[n+]1Cc1ccc2ccccc2n1`, the GI50 is 2.55 µM in the experiment with EKVX NSCLC; 0.912 µM in the experiment with HCC-2998 colon; 2.16 µM in the experiment with HS 578T breast; 0.421 µM in the experiment with K-562 leukemia; 1.56 µM with M14 melanoma; 0.658 µM in the experiment with MALME-3M melanoma. Further, the GI50 was 1.87 µM in the experiment on NCI-H460 lung, 0.591 µM with PC-3 prostate, 2.03 µM with SW-620 colon and 12.1 µM with UO-31 renal. Also, the TGI with EKVX NSCLC came out at 24.4 µM; in the experiment with HCC-2998 colon it was 14.4 µM; in the experiment with HS 578T breast it was 21 µM; with K-562 leukemia it was 13.2 µM; with M14 melanoma it was 12.8 µM; in the experiment with MALME-3M melanoma, 8.67 µM. Further, the TGI in the experiment on NCI-H460 lung is 12.4 µM; with PC-3 prostate, 11.7 µM; with SW-620 colon, 17.2 µM; in the experiment with UO-31 renal it was 36.2 µM.
For the molecule `Cc1cc(O)c(C2=NN(c3ccc(S(N)(=O)=O)cc3)C(/C=C/c3ccccc3)C2)cc1Cl` (stereo not given), the GI50 with EKVX NSCLC was 14.2 µM; in the experiment on HCC-2998 colon it was 9.89 µM; in the experiment on HS 578T breast, 12.3 µM; with K-562 leukemia, 11.6 µM; with M14 melanoma it was 6.16 µM; with MALME-3M melanoma, 3.01 µM. The GI50 with NCI-H460 lung is 4.03 µM; with PC-3 prostate, 3.15 µM; in the experiment with SW-620 colon it was 11.7 µM; in the experiment on UO-31 renal it was 15.2 µM. In addition, the TGI in the experiment on EKVX NSCLC amounted to 35.3 µM; in the experiment with HCC-2998 colon, 30.3 µM; in the experiment with HS 578T breast, 49.7 µM; in the experiment on K-562 leukemia, 87.5 µM; in the experiment with M14 melanoma, 19.3 µM; in the experiment with MALME-3M melanoma it was 17.4 µM. Further, the TGI came to 17 µM in the experiment with NCI-H460 lung, 11.5 µM in the experiment with PC-3 prostate, 31.3 µM in the experiment with SW-620 colon and 34.9 µM in the experiment with UO-31 renal.
Regarding `NC(=O)c1sc(-n2cnc3cc(C(F)(F)F)ccc32)cc1OCc1ccccc1Br`, the GI50 in the experiment on EKVX NSCLC is > 25 µM; in the experiment on HCC-2998 colon, > 25 µM; with HS 578T breast, 12.4 µM; in the experiment with K-562 leukemia it was 24.7 µM; with M14 melanoma, > 25 µM; in the experiment with MALME-3M melanoma, > 16.2 µM. For the same molecule, the GI50 in the experiment with NCI-H460 lung is > 19.6 µM; in the experiment on PC-3 prostate, > 20.4 µM; in the experiment with SW-620 colon it was > 17.9 µM; in the experiment with UO-31 renal, > 25 µM. For the same molecule, the TGI in the experiment with EKVX NSCLC, in the experiment with HCC-2998 colon, with HS 578T breast, with K-562 leukemia, in the experiment on M14 melanoma and in the experiment on MALME-3M melanoma was > 25 µM in each case. The TGI with NCI-H460 lung, in the experiment on PC-3 prostate, in the experiment with SW-620 colon and with UO-31 renal was > 25 µM in each case.
As to `O=C1N(Cc2ccccc2Cl)c2ccccc2C12NN=C(c1cccc(Cl)c1)S2` (stereo not given), the GI50 is 1.69 µM in the experiment on EKVX NSCLC; 1.78 µM in the experiment on HCC-2998 colon; 2.4 µM in the experiment on HS 578T breast; 2.21 µM with K-562 leukemia; 1.7 µM in the experiment on M14 melanoma; 1.54 µM in the experiment with MALME-3M melanoma. Also, the GI50 in the experiment with NCI-H460 lung is 1.42 µM; with PC-3 prostate, 1.74 µM; in the experiment on SW-620 colon, 2.02 µM; in the experiment on UO-31 renal it was 1.69 µM. In addition, the TGI in the experiment with EKVX NSCLC was 3.08 µM; with HCC-2998 colon, 3.24 µM; in the experiment with HS 578T breast, 5.85 µM; in the experiment on K-562 leukemia it was 5.39 µM; in the experiment on M14 melanoma, 3.25 µM; in the experiment with MALME-3M melanoma, 3.24 µM. Besides, the TGI was 3.32 µM with NCI-H460 lung, 3.45 µM in the experiment on PC-3 prostate, 4.33 µM in the experiment on SW-620 colon and 3.26 µM in the experiment with UO-31 renal.
Regarding `C/C(=N\NC(=S)N1CCCCCC1)c1cccc2cccnc12`, the TGI is > 75.3 µM with EKVX NSCLC; > 100 µM in the experiment with HCC-2998 colon; > 100 µM with HS 578T breast; > 100 µM with K-562 leukemia; 14 µM with M14 melanoma; > 61 µM in the experiment on MALME-3M melanoma. The TGI with NCI-H460 lung is > 100 µM; with PC-3 prostate, > 100 µM; in the experiment with SW-620 colon it was > 100 µM; in the experiment with UO-31 renal it was > 44.2 µM.
In the case of `CN1CCN(c2nc(-c3csc(-c4cccs4)n3)cc3ccccc23)CC1`, the GI50 with EKVX NSCLC was 1.58 µM; with HCC-2998 colon, 1.72 µM; with HS 578T breast, 1.7 µM; with K-562 leukemia, 2.16 µM; with M14 melanoma it was 1.87 µM; in the experiment on MALME-3M melanoma, 1.65 µM. Besides, the GI50 in the experiment with NCI-H460 lung was 1.78 µM; with PC-3 prostate, 1.98 µM; in the experiment with SW-620 colon it was 1.75 µM; with UO-31 renal it was 1.66 µM. Also, the TGI with EKVX NSCLC is 3.34 µM; in the experiment on HCC-2998 colon it was 3.4 µM; with HS 578T breast, 4.34 µM; in the experiment on K-562 leukemia it was 4.92 µM; in the experiment on M14 melanoma, 3.71 µM; in the experiment with MALME-3M melanoma it was 3.12 µM. Also, the TGI amounted to 3.25 µM in the experiment on NCI-H460 lung, 4.48 µM with PC-3 prostate, 3.25 µM in the experiment with SW-620 colon and 3.17 µM in the experiment on UO-31 renal.
In the case of `CCCCNc1ccc(Nc2ccccc2)cc1`, the GI50 in the experiment on EKVX NSCLC is 3.53 µM; in the experiment with HCC-2998 colon, 5.73 µM; in the experiment on HS 578T breast, 5.11 µM; in the experiment on K-562 leukemia, 2.45 µM; with M14 melanoma, 6.3 µM; in the experiment on MALME-3M melanoma it was 3.8 µM. Further, the GI50 in the experiment on NCI-H460 lung was 4.61 µM; in the experiment on PC-3 prostate, 3.15 µM; in the experiment with SW-620 colon, 5.06 µM; in the experiment with UO-31 renal, 14.4 µM. For the same molecule, the TGI in the experiment with EKVX NSCLC is > 100 µM; with HCC-2998 colon, > 100 µM; in the experiment on HS 578T breast, 73.7 µM; in the experiment with K-562 leukemia it was 12 µM; in the experiment on M14 melanoma, 31.3 µM; in the experiment on MALME-3M melanoma, 28.8 µM. Moreover, the TGI in the experiment on NCI-H460 lung is 43 µM; with PC-3 prostate, 38.2 µM; with SW-620 colon, > 100 µM; in the experiment on UO-31 renal it was 43.1 µM.
